Measured values from patent publication US11370798B2 (Vertex Pharmaceuticals Incorporated, priority 2012, dated 2022).

Tested on: HCT116 colorectal cancer cells
Experiment: Cisplatin sensitization assay (96 h cell viability MTS);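 also: Test-compound concentration that lowers the Cisplatin IC50 by a set fold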
Type: cell-based
Conditions: compound and Cisplatin added simultaneously, Cisplatin sensitization value
How it was run: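 Compound and cisplatin added together as a full matrix of 2-fold serial dilutions from a top final concentration of 10 μM; cells incubated 96 h at 37° C, 5% CO2. Viability then read by MTS after 1 h further incubation; sensitization value reported in μM bins.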

Row | Structure (SMILES) | Cisplatin Sensitization Assay
1 | CN1CCC(c2c(F)cncc2NC(=O)c2c(N)nn3cc(F)cnc23)CC1 [I-C-14, 2-amino-6-fluoro-N-(5-fluoro-4-(1-methylpiperidin-4-yl)pyridin-3-yl)pyrazolo[1,5-a]pyrimidine-3-carboxamide] | + (Cisplatin sensitization value>0.2 μM but <5 μM)
2 | Nc1nn2cc(F)cnc2c1C(=O)Nc1cncc(F)c1N1CCN(S(=O)(=O)C2COC2)CC1 [I-N-201] | +++ (Cisplatin sensitization value of <0.02 μM)
3 | CN(C)C(=O)C1CCN(c2c(F)cncc2NC(=O)c2c(N)nn3cc(F)cnc23)CC1 [I-G-29, 2-amino-N-(4-(4-(dimethylcarbamoyl)piperidin-1-yl)-5-fluoropyridin-3-yl)-6-fluoropyrazolo[1,5-a]pyrimidine-3-carboxamide] | +++ (Cisplatin sensitization value of <0.02 μM)
4 | Nc1nn2cc(Cl)cnc2c1C(=O)Nc1cnccc1OC1CN2CCC1CC2 (centres unmarked) [I-O-62, 2-amino-6-chloro-N-(4-(quinuclidin-3-yloxy)pyridin-3-yl)pyrazolo[1,5-a]pyrimidine-3-carboxamide] | +++ (Cisplatin sensitization value of <0.02 μM)
5 | Nc1nn2cc(F)cnc2c1C(=O)Nc1cncc(F)c1N1CCC(C(=O)N2CCOCC2)CC1 [I-G-36, 2-amino-6-fluoro-N-(5-fluoro-4-(4-(morpholine-4-carbonyl)piperidin-1-yl)pyridin-3-yl)pyrazolo[1,5-a]pyrimidine-3-carboxamide] | +++ (Cisplatin sensitization value of <0.02 μM)
6 | Cc1nc(C)n(-c2ccncc2NC(=O)c2c(N)nn3cc(F)cnc23)n1 [I-N-218, 2-amino-N-(4-(3,5-dimethyl-1H-1,2,4-triazol-1-yl)pyridin-3-yl)-6-fluoropyrazolo[1,5-a]pyrimidine-3-carboxamide] | + (Cisplatin sensitization value>0.2 μM but <5 μM)
7 | Nc1nn2cc(F)cnc2c1C(=O)Nc1cnccc1C1CCN(C(=O)C2CC2)CC1 [I-C-70, 2-amino-N-(4-(1-(cyclopropanecarbonyl)piperidin-4-yl)pyridin-3-yl)-6-fluoropyrazolo[1,5-a]pyrimidine-3-carboxamide] | +++ (Cisplatin sensitization value of <0.02 μM)
8 | CN1CCN(c2c(NC(=O)c3c(N)nn4cc(F)cnc34)cncc2C(F)F)CC1 [I-N-111, 2-amino-N-(5-(difluoromethyl)-4-(4-methylpiperazin-1-yl)pyridin-3-yl)-6-fluoropyrazolo[1,5-a]pyrimidine-3-carboxamide] | ++ (Cisplatin sensitization value>0.02 μM but <0.2 μM)
9 | CN1CCC[C@H]1C(=O)N1CCN(c2c(F)cncc2NC(=O)c2c(N)nn3cc(F)cnc23)CC1 [I-N-157, (S)-2-amino-6-fluoro-N-(5-fluoro-4-(4-(1-methylpyrrolidine-2-carbonyl)piperazin-1-yl)pyridin-3-yl)pyrazolo[1,5-a]pyrimidine-3-carboxamide] | ++ (Cisplatin sensitization value>0.02 μM but <0.2 μM)
10 | CC(C)(C)N1CCN(c2ccncc2NC(=O)c2c(N)nn3cc(Cl)cnc23)CC1 [I-N-34, 2-amino-N-(4-(4-(tert-butyl)piperazin-1-yl)pyridin-3-yl)-6-chloropyrazolo[1,5-a]pyrimidine-3-carboxamide] | ++ (Cisplatin sensitization value>0.02 μM but <0.2 μM)
11 | Cc1ncc(-c2ccncc2NC(=O)c2c(N)nn3cc(F)cnc23)n1C [I-C-77, 2-amino-N-(4-(1,2-dimethyl-1H-imidazol-5-yl)pyridin-3-yl)-6-fluoropyrazolo[1,5-a]pyrimidine-3-carboxamide] | +++ (Cisplatin sensitization value of <0.02 μM)
12 | CN1CCN(C(=O)c2cnc(-c3ccncc3NC(=O)c3c(N)nn4cc(F)cnc34)c(Cl)c2)CC1 [I-C-46, 2-amino-N-(3-chloro-5-(4-methylpiperazine-1-carbonyl)-[2,4′-bipyridin]-3′-yl)-6-fluoropyrazolo[1,5-a]pyrimidine-3-carboxamide] | + (Cisplatin sensitization value>0.2 μM but <5 μM)
13 | Nc1nn2cc(F)cnc2c1C(=O)Nc1cnccc1N1CCN([C@H]2CCOC2)CC1 [I-N-12, (S)-2-amino-6-fluoro-N-(4-(4-(tetrahydrofuran-3-yl)piperazin-1-yl)pyridin-3-yl)pyrazolo[1,5-a]pyrimidine-3-carboxamide] | +++ (Cisplatin sensitization value of <0.02 μM)
14 | Nc1nn2cc(F)cnc2c1C(=O)Nc1cncc(F)c1N1CCC(C(=O)N2CC3(COC3)C2)CC1 [I-G-14, N-(4-(4-(2-oxa-6-azaspiro[3.3]heptane-6-carbonyl)piperidin-1-yl)-5-fluoropyridin-3-yl)-2-amino-6-fluoropyrazolo[1,5-a]pyrimidine-3-carboxamide] | +++ (Cisplatin sensitization value of <0.02 μM)
15 | Nc1nn2cc(Cl)cnc2c1C(=O)Nc1cnccc1N1CCC(N2CC[C@@H](F)C2)CC1 [I-N-98, (R)-2-amino-6-chloro-N-(4-(4-(3-fluoropyrrolidin-1-yl)piperidin-1-yl)pyridin-3-yl)pyrazolo[1,5-a]pyrimidine-3-carboxamide] | +++ (Cisplatin sensitization value of <0.02 μM)
16 | COc1ccncc1NC(=O)c1c(N)nn2cc(CC#N)cnc12 [I-O-26, 2-amino-6-(cyanomethyl)-N-(4-methoxypyridin-3-yl)pyrazolo[1,5-a]pyrimidine-3-carboxamide] | ++ (Cisplatin sensitization value>0.02 μM but <0.2 μM)
17 | CC(C)(O)C1CCN(c2ccncc2NC(=O)c2c(N)nn3cc(Cl)cnc23)CC1 [I-N-69, 2-amino-6-chloro-N-(4-(4-(2-hydroxypropan-2-yl)piperidin-1-yl)pyridin-3-yl)pyrazolo[1,5-a]pyrimidine-3-carboxamide] | +++ (Cisplatin sensitization value of <0.02 μM)
18 | COC(=O)C1CCN(c2ccncc2NC(=O)c2c(N)nn3cc(Cl)cnc23)CC1 [I-N-74, methyl-1-(3-(2-amino-6-chloropyrazolo[1,5-a]pyrimidine-3-carboxamido)pyridin-4-yl)piperidine-4-carboxylate] | +++ (Cisplatin sensitization value of <0.02 μM)
19 | CO[C@@H]1CCN(C(=O)C2CCN(c3ccncc3NC(=O)c3c(N)nn4cc(F)cnc34)CC2)C1 [I-G-93, (R)-2-amino-6-fluoro-N-(4-(4-(3-methoxypyrrolidine-1-carbonyl)piperidin-1-yl)pyridin-3-yl)pyrazolo[1,5-a]pyrimidine-3-carboxamide] | +++ (Cisplatin sensitization value of <0.02 μM)
20 | CN1CCN(c2c(F)cncc2NC(=O)c2c(N)nn3cc(F)cnc23)CC1=O [I-N-212, 2-amino-6-fluoro-N-(5-fluoro-4-(4-methyl-3-oxopiperazin-1-yl)pyridin-3-yl)pyrazolo[1,5-a]pyrimidine-3-carboxamide] | +++ (Cisplatin sensitization value of <0.02 μM)
21 | C[C@H]1CN(C(=O)C2CCN(c3c(F)cncc3NC(=O)c3c(N)nn4cc(F)cnc34)CC2)CCN1C [I-G-47, (S)-2-amino-N-(4-(4-(3,4-dimethylpiperazine-1-carbonyl)piperidin-1-yl)-5-fluoropyridin-3-yl)-6-fluoropyrazolo[1,5-a]pyrimidine-3-carboxamide] | +++ (Cisplatin sensitization value of <0.02 μM)
22 | Nc1nn2cc(F)cnc2c1C(=O)Nc1cncc(F)c1N1CCCC1 [I-N-246, 2-amino-6-fluoro-N-(5-fluoro-4-(pyrrolidin-1-yl)pyridin-3-yl)pyrazolo[1,5-a]pyrimidine-3-carboxamide] | ++ (Cisplatin sensitization value>0.02 μM but <0.2 μM)
23 | Nc1nn2cc(F)cnc2c1C(=O)Nc1cncc(F)c1N1CCC(C(=O)N2CCN3CCC2C3)CC1 (centres unmarked) [I-G-46, N-(4-(4-(1,4-diazabicyclo[3.2.1]octane-4-carbonyl)piperidin-1-yl)-5-fluoropyridin-3-yl)-2-amino-6-fluoropyrazolo[1,5-a]pyrimidine-3-carboxamide] | +++ (Cisplatin sensitization value of <0.02 μM)
24 | Nc1nn2cc(F)cnc2c1C(=O)Nc1cnccc1N1CCC(S(=O)(=O)N2CCC2)CC1 [I-N-271, 2-amino-N-(4-(4-(azetidin-1-ylsulfonyl)piperidin-1-yl)pyridin-3-yl)-6-fluoropyrazolo[1,5-a]pyrimidine-3-carboxamide] | +++ (Cisplatin sensitization value of <0.02 μM)
25 | CN1CCN(C(=O)C2CCN(c3c(F)cncc3NC(=O)c3c(N)nn4cc(F)cnc34)CC2)CC1 [I-G-4, 2-amino-6-fluoro-N-(5-fluoro-4-(4-(4-methylpiperazine-1-carbonyl)piperidin-1-yl)pyridin-3-yl)pyrazolo[1,5-a]pyrimidine-3-carboxamide] | +++ (Cisplatin sensitization value of <0.02 μM)
26 | CCOc1ccncc1NC(=O)c1c(N)nn2cc(Cl)cnc12 [I-O-56, 2-amino-6-chloro-N-(4-ethoxypyridin-3-yl)pyrazolo[1,5-a]pyrimidine-3-carboxamide] | +++ (Cisplatin sensitization value of <0.02 μM)
27 | C[C@H]1CN(C2COC2)CCN1c1ccncc1NC(=O)c1c(N)nn2cc(F)cnc12 [I-N-24, (S)-2-amino-6-fluoro-N-(4-(2-methyl-4-(oxetan-3-yl)piperazin-1-yl)pyridin-3-yl)pyrazolo[1,5-a]pyrimidine-3-carboxamide] | +++ (Cisplatin sensitization value of <0.02 μM)
28 | C[N+]1([O-])CCN(C(=O)C2CCN(c3c(F)cncc3NC(=O)c3c(N)nn4cc(F)cnc34)CC2)CC1 [I-G-95, 4-(1-(3-(2-amino-6-fluoropyrazolo[1,5-a]pyrimidine-3-carboxamido)-5-fluoropyridin-4-yl)piperidine-4-carbonyl)-1-methylpiperazine 1-oxide] | +++ (Cisplatin sensitization value of <0.02 μM)
29 | N#CCc1cnc2c(C(=O)Nc3cnccc3OCCCO)c(N)nn2c1 [I-O-40, 2-amino-6-(cyanomethyl)-N-(4-(3-hydroxypropoxy)pyridin-3-yl)pyrazolo[1,5-a]pyrimidine-3-carboxamide] | ++ (Cisplatin sensitization value>0.02 μM but <0.2 μM)
